Test systems include TK-10 renal; CCRF-CEM leukemia; M14 melanoma; UACC-62 melanoma; SK-OV-3 ovarian; K-562 leukemia; ACHN renal; UACC-257 melanoma; OVCAR-4 ovarian; OVCAR-5 ovarian.
Assay in all cases: NCI tumour cell line growth inhibition, 48 h

SMILES strings stand for the structures. Several values for one entry are separate records, joined by “and”; a condition that tells them apart may be missing. Equal values may be shown once.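 Grown in 96-well plates, cells were treated for 48 hours with each compound at five concentrations. Insufficient inhibition: endpoint recorded as highest concentration tested. GI50: concentration for 50% inhibition of growth. The concentration for full growth arrest is given as TGI.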

Turning to `COC(=O)c1cc2c3ccccc3n3c(=O)c4cc5ccc(N(S(=O)(=O)c6ccc(C)cc6)S(=O)(=O)c6ccc(C)cc6)cc5nc4c(n1)c23`, the GI50 in the test with TK-10 renal is 19.4 µM; in the test on CCRF-CEM leukemia, 19.2 µM; in the test on M14 melanoma, 54.4 µM; in the test with UACC-62 melanoma, 29.7 µM; with SK-OV-3 ovarian it was 26.2 µM; in the test on K-562 leukemia, 39.4 µM. The GI50 was 17.2 µM with ACHN renal, over 100 µM in the test with UACC-257 melanoma, over 100 µM in the test with OVCAR-4 ovarian and over 100 µM in the test with OVCAR-5 ovarian. The TGI in the test with TK-10 renal is 44 µM; in the test on CCRF-CEM leukemia, 44.9 µM; in the test with M14 melanoma it was over 100 µM; with UACC-62 melanoma, over 100 µM; in the test with SK-OV-3 ovarian, over 100 µM; in the test with K-562 leukemia it was over 100 µM. In addition, the TGI in the test with ACHN renal was 82.6 µM; with UACC-257 melanoma it was over 100 µM; with OVCAR-4 ovarian, over 100 µM; in the test on OVCAR-5 ovarian, over 100 µM.

`CS(=O)(=O)CCNCc1cc(-c2cc3c(Nc4ccc(OCc5cccc(F)c5)c(Cl)c4)ncnc3s2)cs1`: the GI50 is 3.16 µM with TK-10 renal; 11 µM in the test on CCRF-CEM leukemia; 13.4 µM with M14 melanoma; 7.12 µM with UACC-62 melanoma; 1.04 µM in the test with SK-OV-3 ovarian; 6.25 µM in the test on K-562 leukemia. Also, the GI50 in the test on ACHN renal was 7.35 µM; in the test with UACC-257 melanoma, 12.9 µM; with OVCAR-4 ovarian, 14.4 µM; in the test with OVCAR-5 ovarian it was 13.5 µM. In addition, the TGI is over 25 µM in the test with TK-10 renal; over 25 µM in the test on CCRF-CEM leukemia; over 25 µM in the test with M14 melanoma; 24.5 µM with UACC-62 melanoma; over 19.6 µM in the test on SK-OV-3 ovarian; 17.8 µM in the test on K-562 leukemia. The TGI with ACHN renal, in the test with UACC-257 melanoma, with OVCAR-4 ovarian and with OVCAR-5 ovarian was over 25 µM each time.

On to `CC(=O)N/N=C1\CC(C)(C)C2CCC1C2` (stereo not given), for which the TGI with TK-10 renal, in the test with CCRF-CEM leukemia, with M14 melanoma, in the test on UACC-62 melanoma, in the test with SK-OV-3 ovarian and with K-562 leukemia was over 100 µM each time. In addition, the TGI in the test on ACHN renal, with UACC-257 melanoma, with OVCAR-4 ovarian and in the test on OVCAR-5 ovarian was over 100 µM in each case.

In the case of `CCC(O)c1ccc(Br)cc1NC(=O)c1cccc(Cl)c1` (stereo not given), the GI50 in the test with TK-10 renal was 41.7 µM; in the test with CCRF-CEM leukemia, 20.5 µM; in the test with M14 melanoma, 21.3 µM; in the test on UACC-62 melanoma, 12.5 µM; in the test on SK-OV-3 ovarian, 23.7 µM; in the test with K-562 leukemia, 15.6 µM. The GI50 in the test on ACHN renal is 23.1 µM; with UACC-257 melanoma it was 18.4 µM; with OVCAR-4 ovarian, 30 µM; in the test with OVCAR-5 ovarian, 32.3 µM. The TGI with TK-10 renal was over 100 µM; with CCRF-CEM leukemia, 58.9 µM; in the test with M14 melanoma, 52.3 µM; with UACC-62 melanoma, over 100 µM; in the test on SK-OV-3 ovarian, 64.3 µM; in the test with K-562 leukemia, over 100 µM. Further, the TGI was over 100 µM in the test with ACHN renal, 35.1 µM in the test with UACC-257 melanoma, over 100 µM in the test on OVCAR-4 ovarian and over 100 µM in the test on OVCAR-5 ovarian.

Regarding `CC1/C=C/[C@@]2(C)CCC(C(C)(C)O)C2C(O)C[C@](C)(O)/C=C/C1` (stereo not given in full), the TGI in the test on TK-10 renal, with CCRF-CEM leukemia, in the test on M14 melanoma, with UACC-62 melanoma, in the test on SK-OV-3 ovarian and in the test with K-562 leukemia was over 100 µM throughout. For the same compound, the TGI with ACHN renal, with UACC-257 melanoma, in the test on OVCAR-4 ovarian and with OVCAR-5 ovarian was over 100 µM each time.

For the compound `CCOC(=O)C(Cc1c[nH]c2c(N(CCO)CCO)cccc12)(NC(C)=O)C(=O)OCC`, the GI50 with TK-10 renal was over 1000 µM; in the test with CCRF-CEM leukemia it was 59.4 µM and 190 µM; in the test on M14 melanoma, over 1000 µM; with UACC-62 melanoma, 263 µM; in the test with SK-OV-3 ovarian, over 1000 µM; in the test on K-562 leukemia, 194 µM. For the same compound, the GI50 is 119 µM in the test with ACHN renal, over 1000 µM in the test on UACC-257 melanoma, 196 µM in the test with OVCAR-4 ovarian and over 1000 µM in the test on OVCAR-5 ovarian. Also, the TGI in the test with TK-10 renal was over 1000 µM; in the test with CCRF-CEM leukemia, 430 µM; in the test with M14 melanoma it was over 1000 µM; with UACC-62 melanoma it was over 1000 µM; in the test on SK-OV-3 ovarian, over 1000 µM; with K-562 leukemia, 516 µM. Also, the TGI in the test with ACHN renal, in the test with UACC-257 melanoma, in the test on OVCAR-4 ovarian and in the test on OVCAR-5 ovarian was over 1000 µM in each case.

Consider `CCNc1cc(-c2cccc(OC(F)(F)F)c2)nc2ccc(N3CCCC3)cc12`, for which the GI50 in the test with TK-10 renal was 2.58 µM; with CCRF-CEM leukemia, 2.04 µM; in the test on M14 melanoma, 1.64 µM; with UACC-62 melanoma it was 1.57 µM; with SK-OV-3 ovarian it was 1.8 µM; in the test with K-562 leukemia it was 1.43 µM. The GI50 is 2.28 µM in the test on ACHN renal, 1.66 µM in the test with UACC-257 melanoma, 2.35 µM in the test with OVCAR-4 ovarian and 2.36 µM with OVCAR-5 ovarian. In addition, the TGI is 8.09 µM in the test with TK-10 renal; 8.69 µM in the test with CCRF-CEM leukemia; 3.28 µM in the test with M14 melanoma; 3.07 µM in the test with UACC-62 melanoma; 3.86 µM with SK-OV-3 ovarian; 4.3 µM in the test with K-562 leukemia. For the same compound, the TGI was 7.61 µM in the test on ACHN renal, 3.46 µM with UACC-257 melanoma, 10.7 µM in the test on OVCAR-4 ovarian and 7.63 µM in the test with OVCAR-5 ovarian.

For `Cn1c(C(=O)c2ccncc2)cc2ccccc21`, the GI50 in the test with TK-10 renal is over 100 µM; in the test with CCRF-CEM leukemia, over 100 µM; in the test on M14 melanoma it was over 100 µM; with UACC-62 melanoma it was 83.5 µM; in the test with SK-OV-3 ovarian it was over 100 µM; with K-562 leukemia, 59.3 µM. Besides, the GI50 in the test with ACHN renal, in the test with UACC-257 melanoma, with OVCAR-4 ovarian and in the test with OVCAR-5 ovarian was over 100 µM in each case. Further, the TGI in the test on TK-10 renal, in the test with CCRF-CEM leukemia, in the test on M14 melanoma, in the test on UACC-62 melanoma, with SK-OV-3 ovarian and with K-562 leukemia was over 100 µM each time. For the same compound, the TGI in the test on ACHN renal, in the test on UACC-257 melanoma, with OVCAR-4 ovarian and with OVCAR-5 ovarian was over 100 µM each time.

The record behind these values is PubChem BioAssay (NCI).
